Patent EP0812190B1 (priority 1993, dated 1995)
Like-named read-outs stand apart in the source and are kept apart here. Marks after values point to notes of the source that are not given here.

How the values were obtained:
[1] = system: maximal electroshock seizures; experiment: animal or person; settings: mice, 100 mg/kg
Text: The MES test is a classical model to indicate efficacy for partial and generalized seizures in humans. […] Some agents, however, that prevent seizure spread have the side effect of lowering seizure threshold. These agents therefore have both proconvulsive and anticonvulsive side effects.

[2] = system: NMDA-induced cell death of cerebellum cells; experiment: cells
Description: Procedures: Cultures of mechanically dissociated neonatal rat cerebellum. […] The cerebella are then dissociated after 20-25 passages through a sterile 13 gauge, 10 cm long stainless steel needle attached to a 5 ml syringe with an inserted 45 µm pore size nylon sieve. The dissociated cells are centrifuged at 200g for 5 minutes, the supernatant discarded and the cells resuspended in enriched medium. The cell viability is determined by the trypan blue exclusion test. […] After 4 days in culture, the media are replaced with media containing the desired test compounds. Experiments are done in duplicate and repeated 2 or 3 times. […] Nerve cell survival is evaluated by phase contrast microscopy and trypan blue staining after 24 h.

[3] = system: α-MpT-induced hypokinesia; experiment: Reversal of α-MpT-induced hypokinesia in rats; type: in vivo
Description: The drug α-MpT is assumed to inhibit the formation of L-DOPA from tyrosine, and consequently the formation of dopamine itself. Lack of CNS dopamine is expressed as hypoactivity. Six month-old male Wistar rats (from Harlan Orkack, UK) were pretreated with saline, [R] […] Two hours later they received i.p. α-MpT at a dose of 100 mg/kg in 0.3-0.5 mL. Controls received saline. Following this, motor activity was recorded in a computerized activity cage for the duration of 10 hours. […] (+)PAI Mesylate at 2 mg/kg.

[4] = system: haloperidol-induced catalepsy
Description: (+)PAI mesylate, or racemic-PAI mesylate. All drugs were administered i.p. in a volume of 0.2 mL. Two hours later, haloperidol was injected s.c. at a dose of 6mg/kg in a volume of 0.1-0.2 mL. Motor coordination tests were made at 3 hours after giving haloperidol, that is, 5 hours after administering the presumed protective drugs.
Motor coordination tests and rigidity were quantified according to three different parameters: (a) ability to walk the length of a horizontal rod, 80 cm-long; (b) ability co climb down, face down, a vertical rod, 80 cm-long; (c) duration of immobility in an unnatural sitting posture whereby the abdomen of the mouse is pressed against a "wall." Full performance as in haloperidol-untreated mice is given the score of 4 in each test, or a total of 12 in all tests. Poor performance is given a score from 1 to 3.

neurological deficits = settings: mouse, in vivo, 300 mg/kg
Description: TD50 (median toxic dose). This test measures neurological deficits by the rotorod ataxia test. A mouse is placed on a knurled rod rotating at 6 rpm. It is then determined whether a mouse has the ability to maintain its equilibrium and stay on the rod for one minute in each of three trials.

closed head injury [5] = settings: 0.1 mg/kg i.p. at 0, 4, 8 and 12 h after head trauma
Description: (§1) Head trauma was induced in male rats under ether anesthesia by a well calibrated weight-drop device that falls over the exposed skull, covering the left cerebral hemisphere, 1-2 mm lateral to the midline, in the midcoronal plane.
These criteria, referred to as the Neurological Severity Score (NSS), consist of a series of reflexes and motor functions. Points are given based on deficits in these criteria. At 24h the rats were reevaluated.
(§2) [R] (+)PAI Mesylate was dissolved in water. The rats were injected intraperitoneally at a dose of 0.1 mg/kg, 0, 4, 8 and 12 h after induction of head trauma. Control rats were treated with water at the same times.

closed head injury [6] = settings: 24 h after trauma; 0.1 mg/kg i.p. at 0, 4, 8 and 12 h
Description: as §1, §2

[7] = system: crush injury of the optic nerve
Description: • a) General. […] At short terms, metabolic measurements were monitored in terms of the mitochondrial NADH/NAD ratio, which depends on the activity of the electron transport system, and thus indicate levels of energy production. Changes in ability of the nerve to produce energy as a consequence of injury were determined by comparing NADH levels in response to artificial transient anoxic insult before and after the injury. • b) Surface fluorometry - reflectometry. Monitoring of the intramitochondrial NADH redox state is based on the fact that NADH, unlike the oxidized form NAD^+, fluoresces when illuminated […]. A flexible Y-shaped bundle of optic fibers (light guide) was used to transmit the light to and from the optic nerve. […] Changes in the reflected light were correlated with changes in tissue absorption caused by hemodynamic effects and with movements of the optic nerve secondary to alterations in arterial blood pressure and nerve volume. […] Animal utilization was in accord with the ARVO Resolution on the use of animals in research. Male Sprague-Dawley (SPD) rats weighing 300-400g were anesthetized with sodium pentobarbitone (50 mg/kg intraperitoneally). With the animal's head held in place by a head holder, a lateral canthotomy was performed under a binocular operating microscope and the conjuctiva was incised lateral to the cornea.

[8] = Rattus norvegicus, 24 h, read-out: Percent Protection
[9] = Rattus norvegicus, 24 h, read-out: Surviving Cells

Question: With `C#CCN[C@@H]1CCc2ccccc21.CS(=O)(=O)O` [[R](+)PAI Mesylate, R-(+)-N-propargyl-1-aminoindan mesylate] as the molecule, how does the mice protected [1] read?
Answer: one out of three

Question: And the inhibition at 0.01 µM [2, 8]?
Answer: 2%

Question: What about the inhibition at 10 µM [2, 8] of the same molecule?
Answer: 27%

Question: What about the viability at 1 µM [2, 9] of the same molecule?
Answer: 22%

Question: What about the viability at 10 µM [2, 9] of the same molecule?
Answer: 37%

Question: And the “Percent Protection” value ([2]; cerebellar cell cultures, 1440 min, 1 µM)?
Answer: 12%

Question: What about the “Surviving Cells” value ([2]; rat, cerebellar cell cultures, 24 h, 0.01 µM) of the same molecule?
Answer: 12% of untreated controls

Question: What about the “Score (total motor activity, 10 hours)” value ([3]; 2 mg/kg i.p., 2 h before α-MpT 100 mg/kg i.p., SE in the line below) of the same molecule?
Answer: 14,132**

Question: And the “% of control” value ([3]; 2 mg/kg i.p., relative to saline control, listed as [R] (+)PAI Mesylate, mesylate)?
Answer: 89%

Question: What about the “% of control” value ([3]; 2 mg/kg i.p., relative to saline control, mesylate) of the same molecule?
Answer: about 90%

Question: What about the “% of control” value ([3]; 5 mg/kg i.p.) of the same molecule?
Answer: 81%

Question: And the “Score (total motor activity, 10 hours)” value ([3]; 5 mg/kg i.p.)?
Answer: 12,893*

Question: What about the “% of control” value ([4]; 3.0 mg/kg i.p.) of the same molecule?
Answer: 60%

Question: And the “Score+SE” value ([4]; 3.0 mg/kg i.p.)?
Answer: 6.4±0.5

Question: What about the “% of control” value ([4]; 5.0 mg/kg i.p.) of the same molecule?
Answer: 73%

Question: And the “Score+SE” value ([4]; 5.0 mg/kg i.p.)?
Answer: 8.7±0.9

Question: What about the “Score+SE” value ([4]; 10 mg/kg i.p.) of the same molecule?
Answer: 11.3±0.3

Question: What about the “% of control” value ([4]; 10 mg/kg i.p., listed as [R] (+)PAI Mesylate, mesylate) of the same molecule?
Answer: 94%

Question: What about the “% of control” value ([4]; 10 mg/kg i.p., listed as [R] (+)PAI mesylate, mesylate) of the same molecule?
Answer: ≈ 94%

Question: And the “% of control” value ([4]; 15 mg/kg i.p.)?
Answer: 90%

Question: And the “Score+SE” value ([4]; 15 mg/kg i.p.)?
Answer: 10.8±0.5

Question: What about the “Score+SE” value ([4]; […] i.p. (free base), 2 h before haloperidol 6mg/kg s.c., max score 12) of the same molecule?
Answer: 7.2±1

Question: And the acute neurotoxicity (neurological deficits)?
Answer: did not show any neurotoxicity

Question: And the “NSS 1 h” value (closed head injury [5])?
Answer: 16.7

Question: And the “NSS 24 h” value (closed head injury [5])?
Answer: 10.2

Question: And the “Δ NSS (1h - 24h)” value (closed head injury [5])?
Answer: 6.5 ± 0.7

Question: And the “% H2O in the brain” value (closed head injury [6])?
Answer: 82.1 ± 0.6 %

Question: And the “injury-induced reduction in energy production (NADH response to anoxia)” value ([7]; 2 mg/kg i.p. immediately after injury)?
Answer: blocked the injury-induced reduction in energy production

Question: And the “CAP amplitude (Mean ± Std. Error.)” value ([7]; single injection 0.5 mg/kg immediately after injury, 14 days later)?
Answer: 2104 ± 313 µV
